Experimental findings from ChEMBL document CHEMBL4251572, “Novel aminopyrimidinyl benzimidazoles as potentially antimicrobial agents: Design, synthesis and biological evaluation” (Eur J Med Chem, 2018) are described below.

A word on the MIC: it is the lowest concentration found to suppress growth. Read a high MIC as a less susceptible organism.

One assay deals with Bacillus subtilis. Nature of the assay: Antibacterial activity against Bacillus subtilis after 24 hrs by micro broth dilution assay. The assay is classed as functional.
In the next assay the test system is Pichia norvegensis. Nature of the assay: Antifungal against Candida mycoderma after 24 hrs by two fold serial dilution method. The assay is classed as functional.
A further assay relates to Salmonella typhi. Nature of the assay: Antibacterial activity against Bacillus typhi after 24 hrs by micro broth dilution assay. As to conditions: Salmonella enterica. The assay is classed as functional, Salmonella enterica subsp. enterica serovar Typhi.
The next assay deals with Bacillus. The experiment in a line: Antibacterial activity against Bacillus proteus ATCC 13315 after 24 hrs by micro broth dilution assay. It is filed as functional. The note with it: ATCC 13315, 24 h.
Assay [1] has as its system Escherichia coli. The experiment in a line: Antibacterial activity against Escherichia coli JM109 after 24 hrs by micro broth dilution assay. It is filed as functional. The note with it: JM109, 24 h. (In broth dilution the organism is exposed to a series of concentrations in liquid medium.)
The test system of another assay is Pseudomonas aeruginosa. Nature of the assay: Antibacterial activity against Pseudomonas aeruginosa after 24 hrs by micro broth dilution assay. The assay is classed as functional.
The subject of assay [2] is Escherichia coli. The experiment in a line: Antibacterial activity against Escherichia coli DH52 after 24 hrs by micro broth dilution assay. The assay is classed as functional. The note with it: DH52, 24 h.
Another assay has as its system Micrococcus luteus. Nature of the assay: Antibacterial activity against Micrococcus luteus ATCC4698 after 24 hrs by micro broth dilution assay. The assay is classed as functional. As to conditions: ATCC4698, 24 h.
The next assay has as its system Cyberlindnera jadinii. Nature of the assay: Antifungal against Candida utilis after 24 hrs by two fold serial dilution method. The assay is classed as functional. The note with it: Williopsis jadinii.
A further assay concerns Aspergillus flavus. The experiment in a line: Antifungal against Aspergillus flavus after 24 hrs by two fold serial dilution method. It is filed as functional.
Assay [3] deals with Staphylococcus aureus. The experiment in a line: Antibacterial activity against methicillin-resistant Staphylococcus aureus N315 after 24 hrs by micro broth dilution assay. The assay is classed as functional. The note with it: N315, 24 h.
The next assay concerns Candida albicans. The experiment in a line: Antifungal against Candida albicans ATCC 76615 after 24 hrs by two fold serial dilution method. The assay is classed as functional. The note with it: ATCC 76615, 24 h.
The next assay has as its system Shigella dysenteriae. Nature of the assay: Antibacterial activity against Shigella dysenteriae after 24 hrs by micro broth dilution assay. The assay is classed as functional.
A further assay relates to Saccharomyces cerevisiae. Nature of the assay: Antifungal against Saccharomyces cerevisiae after 24 hrs by two fold serial dilution method. It is filed as functional.
Assay [4] relates to Staphylococcus aureus. The experiment in a line: Antibacterial activity against Staphylococcus aureus ATCC 25923 after 24 hrs by micro broth dilution assay. The assay is classed as functional. As to conditions: ATCC 25923, 24 h.

Values after ≈ are worked out from the molar mass of the structure shown.

On to `CCCCCCCCn1c(C(=O)/C=C/c2ccc(F)cc2)nc2ccccc21`, for which the minimum inhibitory concentration (MIC) was determined as 16 µg/mL (≈ 42.3 µM) against Bacillus subtilis; 512 µg/mL (≈ 1350 µM) in the assay on Pichia norvegensis; 128 µg/mL (≈ 338 µM) in the assay on Salmonella typhi; 512 µg/mL (≈ 1350 µM) against Bacillus; 512 µg/mL (≈ 1350 µM) with Escherichia coli [1]; 512 µg/mL (≈ 1350 µM) in the assay with Pseudomonas aeruginosa. The MIC was determined as 8 µg/mL (≈ 21.1 µM) in the assay with Escherichia coli [2]; 32 µg/mL (≈ 84.5 µM) with Micrococcus luteus; 64 µg/mL (≈ 169 µM) against Cyberlindnera jadinii; 256 µg/mL (≈ 676 µM) against Aspergillus flavus; 512 µg/mL (≈ 1350 µM) in the assay with Staphylococcus aureus [3]; 512 µg/mL (≈ 1350 µM) in the assay on Candida albicans. Besides, the MIC in the assay on Shigella dysenteriae, in the assay with Saccharomyces cerevisiae and in the assay on Staphylococcus aureus [4] was 512 µg/mL (≈ 1350 µM) each time.
As to `CCCCn1c(C(=O)/C=C/c2ccc(F)cc2)nc2ccccc21`, the MIC with Bacillus subtilis was found to be 4 µg/mL (≈ 12.4 µM); in the assay with Pichia norvegensis, 64 µg/mL (≈ 199 µM); in the assay on Salmonella typhi it was 8 µg/mL (≈ 24.8 µM); in the assay with Bacillus, 512 µg/mL (≈ 1590 µM); against Escherichia coli [1] it was 16 µg/mL (≈ 49.6 µM); in the assay with Pseudomonas aeruginosa, 0.5 µg/mL (≈ 1.55 µM). In addition, the minimal inhibitory concentration (MIC) against Escherichia coli [2] was 64 µg/mL (≈ 199 µM); in the assay with Micrococcus luteus, 8 µg/mL (≈ 24.8 µM); in the assay on Cyberlindnera jadinii it was 16 µg/mL (≈ 49.6 µM); with Aspergillus flavus it was 128 µg/mL (≈ 397 µM); against Staphylococcus aureus [3] it was 8 µg/mL (≈ 24.8 µM); against Candida albicans, 16 µg/mL (≈ 49.6 µM). Further, the MIC was 4 µg/mL (≈ 12.4 µM) in the assay on Shigella dysenteriae, 512 µg/mL (≈ 1590 µM) in the assay on Saccharomyces cerevisiae and 4 µg/mL (≈ 12.4 µM) with Staphylococcus aureus [4].
As for `O=C(/C=C/c1ccc(Cl)cc1Cl)c1nc2ccccc2[nH]1`, the MIC against Bacillus subtilis is 64 µg/mL (≈ 202 µM); against Pichia norvegensis, 512 µg/mL (≈ 1610 µM); against Salmonella typhi, 512 µg/mL (≈ 1610 µM); in the assay with Bacillus, 512 µg/mL (≈ 1610 µM); in the assay with Escherichia coli [1], 128 µg/mL (≈ 404 µM); with Pseudomonas aeruginosa it was 512 µg/mL (≈ 1610 µM). For the same compound, the MIC against Escherichia coli [2] is 512 µg/mL (≈ 1610 µM); with Micrococcus luteus, 512 µg/mL (≈ 1610 µM); in the assay on Cyberlindnera jadinii, 64 µg/mL (≈ 202 µM); against Aspergillus flavus, 512 µg/mL (≈ 1610 µM); with Staphylococcus aureus [3] it was 256 µg/mL (≈ 807 µM); in the assay with Candida albicans it was 256 µg/mL (≈ 807 µM). Also, the values for the MIC against Shigella dysenteriae, in the assay with Saccharomyces cerevisiae and in the assay with Staphylococcus aureus [4] were 256 µg/mL (≈ 807 µM), 16 µg/mL (≈ 50.4 µM) and 128 µg/mL (≈ 404 µM), respectively.
For the compound `CCCCCCn1c(-c2cc(-c3ccc(F)cc3)nc(N)n2)nc2ccccc21`, the minimum inhibitory concentration (MIC) against Bacillus subtilis stood at 512 µg/mL (≈ 1310 µM); in the assay with Pichia norvegensis it was 4 µg/mL (≈ 10.3 µM); in the assay with Salmonella typhi it was 32 µg/mL (≈ 82.2 µM); with Bacillus it was 128 µg/mL (≈ 329 µM); with Escherichia coli [1] it was 512 µg/mL (≈ 1310 µM); in the assay on Pseudomonas aeruginosa, 128 µg/mL (≈ 329 µM). Also, the MIC against Escherichia coli [2] amounted to 512 µg/mL (≈ 1310 µM); against Micrococcus luteus, 16 µg/mL (≈ 41.1 µM); against Cyberlindnera jadinii, 8 µg/mL (≈ 20.5 µM); in the assay with Aspergillus flavus it was 512 µg/mL (≈ 1310 µM); with Staphylococcus aureus [3], 256 µg/mL (≈ 657 µM); against Candida albicans, 256 µg/mL (≈ 657 µM). The MIC in the assay on Shigella dysenteriae, in the assay on Saccharomyces cerevisiae and in the assay on Staphylococcus aureus [4] was 512 µg/mL (≈ 1310 µM) each time.
For `CCCCCCCCn1c(-c2cc(-c3ccc(Cl)cc3Cl)nc(N)n2)nc2ccccc21`, the MIC was 512 µg/mL (≈ 1090 µM) against Bacillus subtilis; 512 µg/mL (≈ 1090 µM) with Pichia norvegensis; 512 µg/mL (≈ 1090 µM) against Salmonella typhi; 4 µg/mL (≈ 8.54 µM) against Bacillus; 512 µg/mL (≈ 1090 µM) against Escherichia coli [1]; 512 µg/mL (≈ 1090 µM) with Pseudomonas aeruginosa. Moreover, the MIC came out at 512 µg/mL (≈ 1090 µM) in the assay on Escherichia coli [2]; 32 µg/mL (≈ 68.3 µM) in the assay on Micrococcus luteus; 8 µg/mL (≈ 17.1 µM) against Cyberlindnera jadinii; 512 µg/mL (≈ 1090 µM) against Aspergillus flavus; 256 µg/mL (≈ 547 µM) in the assay on Staphylococcus aureus [3]; 512 µg/mL (≈ 1090 µM) against Candida albicans. For the same compound, the values for the MIC in the assay with Shigella dysenteriae, against Saccharomyces cerevisiae and with Staphylococcus aureus [4] were 512 µg/mL (≈ 1090 µM), 16 µg/mL (≈ 34.2 µM) and 256 µg/mL (≈ 547 µM), respectively.
Turning to `CCCCn1c(C(=O)/C=C/c2ccc(Cl)cc2)nc2ccccc21`, the MIC stood at 512 µg/mL (≈ 1510 µM) in the assay on Bacillus subtilis; 256 µg/mL (≈ 756 µM) in the assay on Pichia norvegensis; 512 µg/mL (≈ 1510 µM) in the assay with Salmonella typhi; 128 µg/mL (≈ 378 µM) against Bacillus; 256 µg/mL (≈ 756 µM) against Escherichia coli [1]; 512 µg/mL (≈ 1510 µM) in the assay on Pseudomonas aeruginosa. Also, the minimum inhibitory concentration (MIC) in the assay on Escherichia coli [2] is 512 µg/mL (≈ 1510 µM); in the assay on Micrococcus luteus it was 512 µg/mL (≈ 1510 µM); in the assay on Cyberlindnera jadinii, 512 µg/mL (≈ 1510 µM); against Aspergillus flavus it was 512 µg/mL (≈ 1510 µM); against Staphylococcus aureus [3] it was 8 µg/mL (≈ 23.6 µM); against Candida albicans, 256 µg/mL (≈ 756 µM). In addition, the MIC was determined as 32 µg/mL (≈ 94.4 µM) against Shigella dysenteriae, 16 µg/mL (≈ 47.2 µM) against Saccharomyces cerevisiae and 64 µg/mL (≈ 189 µM) with Staphylococcus aureus [4].
